Results on two compounds are retold here after US20100266573A1, “METHOD AND MEANS FOR OBTAINING BRONCHORELAXATION” (Pharmalundensis AB, priority 2007, published 2010).

For series [1] the following is noted: humans; cited from earlier work.
The conditions of series [2]: may cause adverse effects in some individuals; cited from earlier work.
Series [3] concerns patient with chronic obstructive pulmonary disease (COPD). Description: Administration of iodine on activated charcoal to a COPD patient, spirometric evaluation and observed bronchorelaxation. The settings on record: same COPD patient; 50 mg elemental iodine in a gelatin capsule for a few days. It is filed as in vivo, human. The text has this:
A person, had been smoking cigarettes daily for many years, but quit about 10 years ago. The decision to quit smoking was caused by increasing problems from the airways, with repeated episodes of pneumonia and airway obstruction. These symptoms were usually treated with antibiotics, steroids and bronchodilators.
After that, the airway symptoms increased considerably, with month-long episodes of cough and exercise-induced dyspnea.
In the following months the situation continued to worsen with loss of appetite, reduction of weight and severe dyspnea during rest, in spite of maximum treatment with anti-cholinergics, steroids and bronchodilators. The patient now felt desperately ill, and questioned how long they would be able to survive.
The severity of their condition prompted the patient to look for alternative treatments. […] […] […] A renewed spirometric evaluation a few months later confirmed the subjective improvements (FEV1=2.79 L, corresponding to 97.1% of their reference value and PEF=427 L/min, corresponding to 92.5% of their reference value).
The patient has continued to regularly take the combination for more than a year and still experiences the full benefit of it. A temporary discontinuation of the intake for a few days led to the reappearance of many of the symptoms. However, they quickly disappeared upon the resumption of the intake of iodinated activated charcoal. […]

Consider `[Br-].[Na+]` [Sodium bromide, sodium bromide], for which the no-effect level in series [1] was 4 mg/kg body weight.
`II` [elemental iodine, iodine]: the “iodine intake probably safe for the majority of the population” value in series [2] is reported as “less than or equal to 1,000 mg/day”. For the same compound, in series [3], the bronchorelaxing effect entry is given as “no distinct bronchorelaxing effect was observed”.
